Results on 3 compounds are retold here after paper PMC6270194 (Molecules, 2013).

pIC50: −log10 of the molar value. Marks after values point to notes of the source that are not given here.

As usually defined, the inhibition is the relative decrease from the control value, in per cent. The pIC50 is the IC50 on a negative log10 scale, so that one unit is a factor of ten.

Data set [1] can be described thus: Ferric reducing ability of plasma (FRAP) assay. Particulars: 10 μM compounds dissolved in DMSO; Trolox equivalence; mean ± SD. An excerpt: The FRAP assay uses antioxidants in a redox-linked colorimetric assay to reduce ferric tripyridyl triazine to ferrous form at low pH [20].
FRAP assay is based on ferric to ferrous ion reduction to test the electron donating capacity of antioxidants. The assay was modified by using the 96-well microplate reader with an injection port system. Briefly, the FRAP working reagent was made using acetate buffer, 2,4,6-Tris (2-pyridyl)-s-triazine solution and ferric chloride in the ratio 10:1:1. […] After 6 min reaction time, absorbance was measured at 593 nm. Trolox standards at different concentrations were used to calculate the antioxidant capacity as mmol Trolox equivalence per L.

The target in another data set is T1, HIV-1 protease (Human immunodeficiency virus type 1 group M subtype B, UniProt P04585).
T1 construct: HIV-1 protease enzyme (Sigma Aldrich); purchased Sigma Aldrich
As to the kind of experiment: HIV-1 protease inhibition assay (fluorescent substrate). Particulars: 10 μM compounds dissolved in DMSO; read-out: % Enzyme Inhibition HIV-I protease. It is filed as biochemical. The protocol: HIV-1 protease inhibition was performed by using a previously described method. HIV protease fluorescent substrate and HIV-1 protease enzyme (Sigma Aldrich) were used to determine HIV inhibition capacity of sample. Three primary controls i.e., blank, sample and positive control were used. Reaction mixture of 200 µL comprised of five enzyme units (5U) of HIV-1 protease along with 0.5 pmol of enzyme substrate. After addition of both enzymes and substrates, test compounds were added in different concentrations. Reaction mixture was incubated at 37 °C which leads to generation of fluorescence signal by cleaving Tyr-Pro peptide bond of the substrate. Finally reaction mixture was heated for 5 minutes at 90 °C to stop the reaction. The mixture was centrifuged at 12,000 rpm for 3 min. and supernatant was used to measure the fluorescence signal. The enzyme inhibition was calculated using the Equation (1).

The subject of data set [2] is human endothelial lung cells. As to the kind of experiment: Cytotoxicity analysis by LDH release assay. Format: cell-based. The conditions noted are these: 10 µM, 24 hours. The protocol: In the current study authors conducted a toxicology study to confirm safety of compounds and their dosage for potential animal or clinical studies. The study was conducted at 10 µM concentration using human endothelial lung cells. […] Literature reports on cytotoxic behavior of potent natural antioxidants are rare. Research in the field of free radicals mainly deals with screening of novel antioxidants and their mechanism of action.
Human lung cell line (ATCC® PCS-100-022™) was purchased from American Type Culture Collection (Cederlane, Burlington, ON, Canada). Cell lines were maintained and grown in DMEM complete growth media, supplemented with 10% fetal bovine serum (FBS), 100 units/mL penicillin and 100 µg/mL streptomycin (Cederlane) at 37 °C, in a humidified 5% CO2 incubator. Cell growth medium was changed every 48 hours and when cells reached 80% confluence, they were detached from 75 cm^2 tissue culture flask using 0.25% trypsin-EDTA treatment. The detached cells were collected in sterile tube in FBS free media. Collected cells were then counted using the Millipore Scepter 2.0 handheld automated cell counter. Further assay specific analysis was performed as described in section 2.10.
Cytotoxicity assay was performed using Promega Cytotox 96® non-radioactive colorimetric assay (Promega Corporation). The assay measures the lactate dehydrogenase (LDH) release upon cell lysis. The released LDH from cells was measured in an enzymatic assay based on conversion of tetrazolium salt to a red formazan product. Briefly, 5,000 human endothelial lung cells in 100 µL of serum-free culture medium were seeded in 96 well sterile plates. Cells were allowed to adhere to the plates for 24 h at 37 °C in a humidified, 5% CO2 incubator. After 24 h, the serum-free media was replaced by test compounds in 100 µL of serum-free culture medium. […] The test compounds at 10 µM concentration were allowed to interact with cells for 24 hours after which absorbance were recorded at 490 nm using BMG FLUOstar OPTIMA spectrophotometer (BMG Labtech, Durham, NC). […]
On the technique in general: LDH in the medium is a marker of cell lysis.

Data set [3] is described as follows: Oxygen radical absorbance capacity (ORAC) assay. Particulars: 1 μM compounds dissolved in DMSO; Trolox equivalence; mean ± SD. The protocol:
ORAC assay is based on the free radical damage to a fluorescence probe measured by fluorescence intensity over the time. The fluorescein sodium salt was used as fluorescence probe and change in its intensity was estimated as the index of the degree of free radical damage. Assay was performed using method described elsewhere. Briefly, the standards and samples were prepared using 75 mM phosphate buffer (pH 7). As the peroxy radicals are generated from decomposition of 2,2'-azobis(2-amidino-propane) dihydrochloride (AAPH), the signal was quenched from fluorescein. However, in the presence of antioxidant samples the fluorescence signal can be stabilize which depends directly upon the antioxidant’s capacity to neutralize the free radical. Quadratic relation emerging from florescent area under the decaying curve was used to calculate antioxidant capacity as mmol Trolox equivalence per L.

Data set [4] can be described thus: DPPH· free radical scavenging assay. The conditions noted are these: for pIC50: DPPH· scavenging, 0.2 mM DPPH· in DMSO, absorbance 515 nm. The protocol:
DPPH^· assay is widely used to observe radical scavenging activity of various compounds and extracts. DPPH^· is stable N radical which is reduced to hydrazine during its reaction with hydrogen donors.
Initially, 0.2 mM DPPH^· solution was prepared using DMSO as the solvent. […] During reduction of DPPH^· solution by antiradical compound, absorption of DPPH^· was measured at 515 nm. The spectrophotometric data was acquired using BMG FLUOstar OPTIMA spectrophotometer (BMG Labtech, Durham, NC, USA) and the IC50 values were calculated.
(Loss of DPPH colour is used to gauge radical scavenging.)

Another data set has as its system Tyrosinase. The data set is described as follows: Tyrosinase inhibition assay (L-DOPA substrate). It is filed as biochemical. Particulars: 10 μM compounds dissolved in DMSO. The protocol:
Tyrosinase inhibition was calculated based on previously described methods using L-DOPA as the substrate. Tyrosinase inhibition depended upon the amount of dopachrome produced in the reaction mixture. Absorption was measured at 490 nm to calculate the amount of dopachrome produced. The assay was performed in 96-well clear polystyrene plates using FLUOstar OPTIMA plate reader. The tyrosinase inhibitory effect of sample was measured using the following the Equation (1).

Data set [5] relates to angiotensin converting enzyme (ACE). The data set is described as follows: Angiotensin converting enzyme (ACE) inhibition assay. Format: biochemical. The conditions noted are these: 10 μM compounds dissolved in DMSO. The protocol:
ACE assay is based on ACE inhibitory activity of test samples. The enzyme activity was measured by production of hippuric acid from the substrate hippuryl-L-histidyl-L-leucine (HHL). ACE cleaves the substrate to expose a free N-terminus, which was fluorogenically labeled with o-phthaldialdehyde (OPA). The florescence signal was measured by using excitation of 350 nm and emission of 500 nm. ACE inhibition activity of samples was measured using the following equation: % inhibition = 100 − (Acontrol − Asample)/Acontrol × 100 (1) where A is the absorbance Equation (1).

As to `COc1ccc(/C=C/C(O)=C2\CC/C(=C\c3ccc(OC)cc3)C2=O)cc1` [Compound 3c], the FRAP antioxidant capacity in data set [1] is on record as 1.09 ± 0.1 ^gh mmole TE/L. Also, the inhibition at 10 µM on HIV-1 protease was determined as 35.9%. The “cytotoxicity ranking (LDH release), in words” value (from here on “cytotoxicity ranking”) in data set [2] is “highest cytotoxic behavior”. For the same compound, the ORAC antioxidant capacity in data set [3] is 1.17 ± 0.1 ^b mmole TE/L. Moreover, the “antiradical capacity lower than other series 3 analogues (fold)” value in data set [4] (DPPH assay, relative to other curcumin analogues in series 3) is given as “approximately 10 fold”. Also, in data set [4], the pIC50 is 3.47. For the same compound, in the data set on Tyrosinase, the “% Enzyme Inhibition Tyrosinase” value was 58.54 ^g %. In addition, the “% Enzyme Inhibition ACE” value in data set [5] was 67.42 ^cd %.

With `O=C1/C(=C(O)/C=C/c2ccc(Cl)cc2)CC/C1=C\c1ccc(Cl)cc1` [Compound 3f], the FRAP antioxidant capacity in data set [1] is recorded as 1.09 ± 0.1 ^gh mmole TE/L. Moreover, the inhibition at 10 µM on HIV-1 protease is 23.3%. Further, the “cytotoxicity ranking” value in data set [2] is “lowest cytotoxicity effects”. In addition, the ORAC antioxidant capacity in data set [3] is reported as 1.30 ± 0.02 ^b mmole TE/L. Further, in data set [4] (DPPH assay, relative to curcumin), the “radical scavenging capacity higher than curcumin (fold)” value is given as “over 10 fold”. The compound also had a pIC50 in data set [4] of 4.05. The “% Enzyme Inhibition Tyrosinase” value with Tyrosinase was 61.31 ^e %. In data set [5], the “% Enzyme Inhibition ACE” value is recorded as 75.12 ^bc %.

Regarding `Cc1ccc(/C=C/C(O)=C2\CCC/C(=C\c3ccc(C)cc3)C2=O)cc1` [Compound 2g], the FRAP antioxidant capacity in data set [1] is reported as 1.12 ± 0.02 ^g mmole TE/L. Besides, the inhibition at 10 µM at HIV-1 protease was determined as 20.1%. The “cytotoxicity ranking” value in data set [2] was “lowest cytotoxicity effects”. In data set [3], the ORAC antioxidant capacity is on record as 0.84 ± 0.01 ^d mmole TE/L. The same compound gave a pIC50 in data set [4] of 2.87. In addition, the “% Enzyme Inhibition Tyrosinase” value in the data set with Tyrosinase is given as 59.44 ^fg %. Also, the “% Enzyme Inhibition ACE” value in data set [5] was 15.04 ^g %.
